{"source": "paper PMC8778445", "about": "“HPLC-MS Profiling, Antioxidant, Antimicrobial, Antidiabetic, and Cytotoxicity Activities of Arthrocnemum indicum (Willd.) Moq. Extracts” (Plants, 2022)", "target": "T1, Intestinal Alpha-glucosidase type I (α-glucosidase)", "T1 construct": "gene MAL12; commercial enzyme (Sigma-Aldrich), no catalogue number", "test": "alpha-glucosidase inhibition assay", "assay_type": "biochemical", "conditions": "positive control; 4-nitrophenyl β-d-glucopyranoside listed among reagents (beta anomer as printed); pH, temperature not given", "from_the_text": "alpha-glucosidase inhibition assay on Intestinal Alpha-glucosidase type I (α-glucosidase)", "data": [{"smiles": "C[C@H]1O[C@H](O[C@H]2[C@H](O)[C@@H](O)[C@@H](O[C@H]3[C@H](O)[C@@H](O)C(O)O[C@@H]3CO)O[C@@H]2CO)[C@H](O)[C@@H](O)[C@@H]1N[C@H]1C=C(CO)[C@@H](O)[C@H](O)[C@H]1O", "note": "(stereo partly shown) [acarbose]", "values": [{"measurement": "α-Glucosidase (IC50 mg/mL)", "result": "1.12 ± 0.08", "unit": "mg/mL"}]}]}
